Data: paper PMC9166766 (Experimental & Molecular Medicine, 2022)
No end group written: not given here.

Assays:
[1] = system: Jurkat T cells (T-cell activation gene mRNA); assay: Real-time quantitative PCR of activated Jurkat T cells; assay type: cell-based; settings: PMA and ionomycin
Description: We collected Jurkat T cells with QIAzol Lysis Reagent (Qiagen) to extract total RNA. We reverse transcribed cDNAs from isolated RNA using AMV Reverse Transcriptase and random hexamers. We performed real-time quantitative PCR for each cDNA using TB Green® Premix Ex Taq™ (TaKaRa, Kusatsu, Japan) on a CFX Connect Real-time PCR Detection System (Bio-Rad, Hercules, CA, USA) and normalized the expression to that of 18 S rRNA or GAPDH.

NFATC2 dephosphorylation = assay: NFAT mobility shifting assay in Jurkat T cells; assay type: cell-based; settings: HA-mCherry-tagged peptides, PMA and ionomycin 2 h, n = 7
Description: Jurkat T cells expressing GST-tagged peptides were treated with PMA and ionomycin for activation. […] For dephosphorylation of NFATC2, Jurkat T cells were treated with PMA and ionomycin for 2 h. c Hyper- and hypophosphorylated NFATC2 of b was measured using ImageJ, and the hypo/hyper ratio was calculated (n = 7). d Snapshot images of the activated Jurkat T cells expressing the indicated peptides and tNFATC2 were obtained using confocal microscopy. The expression and localization of peptides and tNFATC2 are shown as mCherry (red) and EGFP (green), respectively. Nuclei were stained with Hoechst (blue). Scale bar, 50 μm e Nuclear-localized tNFATC2 was measured by calculating the colocalization ratio between Hoechst (M1) and EGFP (M2). […] Statistical differences were determined using a two-tailed Student’s t-test (a, c) or one-way ANOVA (e). ***p < 0.001, NC negative control.

[2] = system: Jurkat T cells (PMA and ionomycin-induced gene expression); assay: mRNA sequencing of activated Jurkat T cells; assay type: cell-based, human
Description: We then extracted RNA from these cells. Construction of the cDNA library and next-generation sequencing was performed at LAS (Gimpo, Korea). We sequenced all samples on an Illumina NextSeq 500 system with 75 paired-end reads. For the RNA sequencing analysis, reads for each sample were aligned to the human genome (GRCh37/hg19 genome assembly) using STAR 2.4.0.1[25] with default settings. We used HOMER tools to quantify and normalize the defined genes in RefSeq transcripts. FPKM normalized genes were hierarchically clustered using Cluster3.0[26]. We visualized refined data with Java Treeview (http://jtreeview.sourceforge.net). We conducted gene ontology analysis of each cluster using the DAVID web tool (https://david.ncifcrf.gov). Finally, we visualized the expression levels of target genes using the Integrative Genomics Viewer (http://software.broadinstitute.org/software/igv). The raw data were submitted to the NCBI Gene Expression Omnibus under accession number GSE185561.
Fig. 3 The CABIN1 peptide inhibits T-cell activation. a Heatmap of altered genes affected by FK506 treatment or CABIN1 peptide expression upon T-cell activation. b Gene Ontology analysis of cluster III. c mRNA expression levels of genes included in cluster III. d qRT-PCR data of genes in c. The experiment was independently repeated at least three times, and the data are presented as the mean ± standard deviation. Statistical differences were determined using two-tailed Student’s t-test. *p < 0.05, **p < 0.01, ***p < 0.001, NC negative control.

In the case of “CABIN1-L-1-2: 10 amino acids from proline 2146 to proline 2155 of full-length CABIN1; expressed GST-, GAL4 DBD- or HA-mCherry-tagged (PEITVTPPTP; also: expressed GST-, GAL4 DBD- or HA-mCherry-tagged, end not given here)”, the “NINJ1 and ZP4 expression upon T-cell activation” value ([1]; Supplementary Fig. 5a, b) is reported as “unaffected”, the “RNA levels of T-cell activation genes (qRT-PCR) vs VIVIT peptide” value ([1]; at least three repeats) is reported as “reduced the RNA levels of these genes more efficiently than the VIVIT peptide” and the “NFATC2 dephosphorylation / band shift” value (NFATC2 dephosphorylation) is reported as “significantly inhibited the NFATC2 band shift”. For the same substance, the “CD27 and CD70 expression” value ([2]; Jurkat, PMA and ionomycin 8 h) was “repressed”, the “RNA levels of T-cell activation markers (IL2, IL3, NFATC1, CCL4, CCL20, CXCL8)” value ([2]; Jurkat, PMA and ionomycin 8 h) was “reduced the RNA levels” and the TM4SF1 expression ([2]; P+I 8 h, NC 0, NC_P+I 3.268) was 0.907 FPKM. It also gave a CD200 expression ([2]; P+I 8 h, NC 0, NC_P+I 3.759) of 0.094 FPKM, a ZP4 expression ([2]; P+I 8 h, NC 0, NC_P+I 6.38) of 5.182 FPKM and a CCL3L1 expression ([2]; P+I 8 h, NC 0, NC_P+I 6.448) of 0.079 FPKM. The CCL3L3 expression ([2]; P+I 8 h, NC 0, NC_P+I 6.524) was 0.079 FPKM, the CCL1 expression ([2]; P+I 8 h, NC 0, NC_P+I 9.86) was 0.415 FPKM and the NR4A2 expression ([2]; P+I 8 h, NC 0, NC_P+I 10.173) was 0.356 FPKM. The CCL4L2 expression ([2]; P+I 8 h, NC 0, NC_P+I 12.758) was 0.328 FPKM, the CCL4L1 expression ([2]; P+I 8 h, NC 0, NC_P+I 13.27) was 0.328 FPKM and the CSF2 expression ([2]; P+I 8 h, NC 0, NC_P+I 23.497) was 0.314 FPKM. The XCL1 expression ([2]; P+I 8 h, NC 0, NC_P+I 49.113) was 1.144 FPKM, the CCL3 expression ([2]; P+I 8 h, NC 0, NC_P+I 52.239) was 0.502 FPKM and the CCL20 expression ([2]; P+I 8 h, NC 0, NC_P+I 59.393) was 1.279 FPKM. The IL3 expression ([2]; P+I 8 h, NC 0, NC_P+I 229.054) was 6.298 FPKM, the CCL4 expression ([2]; P+I 8 h, NC 0, NC_P+I 247.287) was 4.062 FPKM and the IL2 expression ([2]; P+I 8 h, NC 0, NC_P+I 397.807) was 12.964 FPKM. For the same substance, the C3 expression ([2]; P+I 8 h, NC 0.006, NC_P+I 3.907) was 1.329 FPKM, the TNS3 expression ([2]; P+I 8 h, NC 0.008, NC_P+I 13.196) was 1.418 FPKM and the PLS3 expression ([2]; P+I 8 h, NC 0.019, NC_P+I 4.717) was 0.37 FPKM. It also gave a CREB5 expression ([2]; P+I 8 h, NC 0.031, NC_P+I 4.533) of 1.966 FPKM, an IRF4 expression ([2]; P+I 8 h, NC 0.034, NC_P+I 8.439) of 2.092 FPKM and a CXCL8 expression ([2]; P+I 8 h, NC 0.037, NC_P+I 26.755) of 3.327 FPKM. For the same substance, the SLAMF1 expression ([2]; P+I 8 h, NC 0.042, NC_P+I 5.663) was 0.275 FPKM, the TNFSF14 expression ([2]; P+I 8 h, NC 0.045, NC_P+I 69.958) was 4.255 FPKM and the IL21R-AS1 expression ([2]; P+I 8 h, NC 0.048, NC_P+I 23.616) was 3.991 FPKM. The XCL2 expression ([2]; P+I 8 h, NC 0.056, NC_P+I 70.747) was 2.074 FPKM, the LIF expression ([2]; P+I 8 h, NC 0.063, NC_P+I 3.697) was 0.231 FPKM and the SHC4 expression ([2]; P+I 8 h, NC 0.069, NC_P+I 4.391) was 0.686 FPKM. It also gave an RGS16 expression ([2]; P+I 8 h, NC 0.077, NC_P+I 29.102) of 5.595 FPKM, an IL21R expression ([2]; P+I 8 h, NC 0.1, NC_P+I 34.712) of 5.255 FPKM and a CRTAM expression ([2]; P+I 8 h, NC 0.104, NC_P+I 100.175) of 9.51 FPKM. It also gave a ZNF704 expression ([2]; P+I 8 h, NC 0.107, NC_P+I 4.985) of 0.183 FPKM, an NTRK1 expression ([2]; P+I 8 h, NC 0.167, NC_P+I 7.941) of 1.657 FPKM and a PHEX expression ([2]; P+I 8 h, NC 0.188, NC_P+I 17.377) of 0.786 FPKM. For the same substance, the SORBS1 expression ([2]; P+I 8 h, NC 0.196, NC_P+I 5.08) was 0.511 FPKM, the TIAM2 expression ([2]; P+I 8 h, NC 0.255, NC_P+I 4.095) was 0.301 FPKM and the CRIM1 expression ([2]; P+I 8 h, NC 0.268, NC_P+I 3.029) was 0.333 FPKM. For the same substance, the SERPINB2 expression ([2]; P+I 8 h, NC 0.28, NC_P+I 85.882) was 14.103 FPKM, the CCND2 expression ([2]; P+I 8 h, NC 0.321, NC_P+I 6.436) was 0.99 FPKM and the CXCR3 expression ([2]; P+I 8 h, NC 0.604, NC_P+I 14.322) was 1.803 FPKM. The ISM1 expression ([2]; P+I 8 h, NC 0.798, NC_P+I 56.893) was 3.737 FPKM, the C10orf54 expression ([2]; P+I 8 h, NC 0.84, NC_P+I 7.506) was 0.487 FPKM and the CSF1 expression ([2]; P+I 8 h, NC 0.848, NC_P+I 13.43) was 2.594 FPKM. For the same substance, the SLC35E4 expression ([2]; P+I 8 h, NC 0.887, NC_P+I 9.069) was 1.517 FPKM, the ZNF827 expression ([2]; P+I 8 h, NC 0.975, NC_P+I 3.401) was 1.372 FPKM and the CD70 expression ([2]; P+I 8 h, NC 1.101, NC_P+I 61.146) was 7.606 FPKM. It also gave a PAM expression ([2]; P+I 8 h, NC 1.154, NC_P+I 5.577) of 1.934 FPKM, an FOXO1 expression ([2]; P+I 8 h, NC 1.167, NC_P+I 8.247) of 3.736 FPKM and an IRF8 expression ([2]; P+I 8 h, NC 1.168, NC_P+I 14.813) of 1.914 FPKM. For the same substance, the SCHIP1 expression ([2]; P+I 8 h, NC 1.25, NC_P+I 3.933) was 1.333 FPKM, the FOSL2 expression ([2]; P+I 8 h, NC 1.294, NC_P+I 7.508) was 2.362 FPKM and the TNFSF9 expression ([2]; P+I 8 h, NC 1.393, NC_P+I 7.107) was 2.651 FPKM. For the same substance, the IQCJ-SCHIP1 expression ([2]; P+I 8 h, NC 1.402, NC_P+I 4.253) was 1.234 FPKM and the STAT5A expression ([2]; P+I 8 h, NC 1.417, NC_P+I 9.105) was 3.055 FPKM.
